Active and inactive are the calls of the source. No cut-off for these calls is given here.
Experiments:
Type in all cases: functional
[1] = Cytotoxicity against human SF268 cells at 10 uM after 48 hrs by SRB assay; conditions: SF-268, 48 h, read-out: GI
[2] = Cytotoxicity against human OVCAR8 cells at 10 uM after 48 hrs by SRB assay; conditions: OVCAR-8, 48 h, read-out: GI
[3] = Cytotoxicity against human HCC2998 cells at 10 uM after 48 hrs by SRB assay; conditions: HCC 2998, 48 h, read-out: GI
[4] = Cytotoxicity against human SF295 cells at 10 uM after 48 hrs by SRB assay; conditions: SF-295, 48 h, read-out: GI
[5] = test system: NCI-H522; test: Cytotoxicity against human NCI-H522 cells at 10 uM after 48 hrs by SRB assay; conditions: NCI-H522, 48 h, read-out: GI
[6] = Cytotoxicity against human HL-60(TB) cells at 10 uM after 48 hrs by SRB assay; conditions: HL-60, 48 h, read-out: GI
[7] = Cytotoxicity against human UACC257 cells at 10 uM after 48 hrs by SRB assay; conditions: UACC-257, 48 h, read-out: GI
[8] = test system: SK-MEL-2; test: Cytotoxicity against human SK-MEL-2 cells at 10 uM after 48 hrs by SRB assay
[9] = test system: SK-OV-3; test: Cytotoxicity against human SKOV3 cells at 10 uM after 48 hrs by SRB assay
[10] = test system: M14; test: Cytotoxicity against human M14 cells at 10 uM after 48 hrs by SRB assay
[11] = test system: SR; test: Cytotoxicity against human SR cells at 10 uM after 48 hrs by SRB assay; conditions: read-out: GI
[12] = test system: SN12C; test: Cytotoxicity against human SN12C cells at 10 uM after 48 hrs by SRB assay; conditions: read-out: GI
[13] = test system: MCF7; test: Cytotoxicity against human MCF7 cells at 10 uM after 48 hrs by SRB assay; conditions: MCF7, 48 h, read-out: GI
[14] = Cytotoxicity against human Caki1 cells at 10 uM after 48 hrs by SRB assay; conditions: CAKI-1, 48 h, read-out: GI
[15] = test system: T47D; test: Cytotoxicity against human T47D cells at 10 uM after 48 hrs by SRB assay
[16] = test system: NCI/ADR-RES; test: Cytotoxicity against human NCI-ADR-RES cells at 10 uM after 48 hrs by SRB assay
[17] = Cytotoxicity against human LOXIMVI cells at 10 uM after 48 hrs by SRB assay; conditions: LOX IMVI, read-out: GI
[18] = Cytotoxicity against human OVCAR4 cells at 10 uM after 48 hrs by SRB assay; conditions: OVCAR-4, 48 h, read-out: GI
[19] = test system: CCRF-CEM; test: Cytotoxicity against human CCRF-CEM cells at 10 uM after 48 hrs by SRB assay; conditions: read-out: GI
[20] = test system: Malme-3M; test: Cytotoxicity against human MALME-3M cells at 10 uM after 48 hrs by SRB assay; conditions: read-out: GI
[21] = test system: K562; test: Cytotoxicity against human K562 cells at 10 uM after 48 hrs by SRB assay; conditions: K562, 48 h, read-out: GI
[22] = test system: SNB-19; test: Cytotoxicity against human SNB19 cells at 10 uM after 48 hrs by SRB assay
[23] = Cytotoxicity against human OVCAR5 cells at 10 uM after 48 hrs by SRB assay; conditions: OVCAR-5, 48 h, read-out: GI
[24] = test system: ACHN; test: Cytotoxicity against human ACHN cells at 10 uM after 48 hrs by SRB assay; conditions: read-out: GI
[25] = Cytotoxicity against human DU145 cells at 10 uM after 48 hrs by SRB assay; conditions: DU-145, 48 h, read-out: GI
[26] = test system: A549; test: Cytotoxicity against human A549 cells at 10 uM after 48 hrs by SRB assay; conditions: A549, 48 h, read-out: GI
[27] = Cytotoxicity against human SF539 cells at 10 uM after 48 hrs by SRB assay; conditions: SF-539, 48 h, read-out: GI
[28] = test system: MDA-MB-468; test: Cytotoxicity against human MDA-MB-468 cells at 10 uM after 48 hrs by SRB assay; conditions: MDA-MB-468, 48 h, read-out: GI
[29] = Cytotoxicity against human OVCAR3 cells at 10 uM after 48 hrs by SRB assay; conditions: OVCAR-3, 48 h, read-out: GI
[30] = Cytotoxicity against human MOLT4 cells at 10 uM after 48 hrs by SRB assay; conditions: MOLT-4, 48 h, read-out: GI
[31] = Cytotoxicity against human UO31 cells at 10 uM after 48 hrs by SRB assay; conditions: UO-31, 48 h, read-out: GI
[32] = Cytotoxicity against human IGROV1 cells at 10 uM after 48 hrs by SRB assay; conditions: IGROV-1, 48 h, read-out: GI
[33] = Cytotoxicity against human HOP92 cells at 10 uM after 48 hrs by SRB assay; conditions: HOP-92, 48 h, read-out: GI
[34] = test system: 786-0; test: Cytotoxicity against human 786-0 cells at 10 uM after 48 hrs by SRB assay; conditions: 786-0, 48 h, read-out: GI
[35] = test system: NCI-H226; test: Cytotoxicity against human NCI-H226 cells at 10 uM after 48 hrs by SRB assay; conditions: NCI-H226, 48 h, read-out: GI
[36] = Cytotoxicity against human SW620 cells at 10 uM after 48 hrs by SRB assay; conditions: SW-620, 48 h, read-out: GI
[37] = Cytotoxicity against human RXF393 cells at 10 uM after 48 hrs by SRB assay; conditions: RXF 393, 48 h, read-out: GI
[38] = test system: COLO 205; test: Cytotoxicity against human COLO205 cells at 10 uM after 48 hrs by SRB assay
[39] = test system: HT-29; test: Cytotoxicity against human HT-29 cells at 10 uM after 48 hrs by SRB assay; conditions: HT-29, 48 h, read-out: GI
[40] = test system: NCI-H460; test: Cytotoxicity against human NCI-H460 cells at 10 uM after 48 hrs by SRB assay; conditions: NCI-H460, 48 h, read-out: GI
[41] = Cytotoxicity against human HOP62 cells at 10 uM after 48 hrs by SRB assay; conditions: HOP-62, 48 h, read-out: GI
[42] = Cytotoxicity against human HCT116 cells at 10 uM after 48 hrs by SRB assay; conditions: HCT-116, 48 h, read-out: GI
[43] = test system: MDA-MB-231; test: Cytotoxicity against human MDA-MB-231 cells at 10 uM after 48 hrs by SRB assay; conditions: MDA-MB-231, 48 h, read-out: GI
[44] = Cytotoxicity against human HCT15 cells at 10 uM after 48 hrs by SRB assay; conditions: HCT-15, 48 h, read-out: GI
[45] = Cytotoxicity against human SNB75 cells at 10 uM after 48 hrs by SRB assay; conditions: SNB-75, 48 h, read-out: GI
[46] = test system: TK-10; test: Cytotoxicity against human TK10 cells at 10 uM after 48 hrs by SRB assay
[47] = test system: SK-MEL-28; test: Cytotoxicity against human SK-MEL-28 cells at 10 uM after 48 hrs by SRB assay
[48] = Cytotoxicity against human RPMI8226 cells at 10 uM after 48 hrs by SRB assay; conditions: RPMI-8226, 48 h, read-out: GI
[49] = test system: SK-MEL-5; test: Cytotoxicity against human SK-MEL-5 cells at 10 uM after 48 hrs by SRB assay; conditions: SK-MEL-5, 48 h, read-out: GI
[50] = test system: MDA-MB-435; test: Cytotoxicity against human MDA-MB-435 cells at 10 uM after 48 hrs by SRB assay; conditions: MDA-MB-435, 48 h, read-out: GI
[51] = test system: A498; test: Cytotoxicity against human A498 cells at 10 uM after 48 hrs by SRB assay; conditions: A498, 48 h, read-out: GI
[52] = Cytotoxicity against human Hs 578T cells at 10 uM after 48 hrs by SRB assay; conditions: read-out: GI
[53] = test system: BT-549; test: Cytotoxicity against human BT549 cells at 10 uM after 48 hrs by SRB assay
[54] = test system: KM12; test: Cytotoxicity against human KM12 cells at 10 uM after 48 hrs by SRB assay; conditions: KM12, 48 h, read-out: GI
[55] = Cytotoxicity against human PC3 cells at 10 uM after 48 hrs by SRB assay; conditions: PC-3, 48 h, read-out: GI
[56] = Cytotoxicity against human UACC62 cells at 10 uM after 48 hrs by SRB assay; conditions: UACC-62, 48 h, read-out: GI

Structure (SMILES): Cc1nc2cc(Nc3nc(Nc4ccc(O)cc4)nc(Nc4ccc(F)cc4)n3)ccc2n1Cc1ccccc1
- inhibition of growth at 10 µM [1]: 11.2%
- inhibition of growth at 10 µM [2]: 22.2%
- inhibition of growth at 10 µM [3]: 4.67%
- inhibition of growth at 10 µM [4]: 5.35%
- inhibition of growth at 10 µM [5]: 15.1%
- inhibition of growth at 10 µM [6]: 6.96%
- inhibition of growth at 10 µM [7]: 3.73%
- growth inhibition (GI) [8]: inactive
- growth inhibition (GI) [9]: inactive
- growth inhibition (GI) [10]: inactive
- inhibition of growth at 10 µM [11]: 20.8%
- inhibition of growth at 10 µM [12]: 2.54%
- inhibition of growth at 10 µM [13]: 16%
- inhibition of growth at 10 µM [14]: 4.53%
- growth inhibition (GI) [15]: inactive
- growth inhibition (GI) [16]: inactive
- inhibition of growth at 10 µM [17]: 3.79%
- inhibition of growth at 10 µM [18]: 12.8%
- inhibition of growth at 10 µM [19]: 8.15%
- inhibition of growth at 10 µM [20]: 0.89%
- inhibition of growth at 10 µM [21]: 21.3%
- growth inhibition (GI) [22]: inactive
- inhibition of growth at 10 µM [23]: 3.66%
- inhibition of growth at 10 µM [24]: 8.7%
- inhibition of growth at 10 µM [25]: 41.6%
- inhibition of growth at 10 µM [26]: 22.2%
- inhibition of growth at 10 µM [27]: 6.34%
- inhibition of growth at 10 µM [28]: 13.4%
- inhibition of growth at 10 µM [29]: 8.38%
- inhibition of growth at 10 µM [30]: 19.8%
- inhibition of growth at 10 µM [31]: 6.02%
- inhibition of growth at 10 µM [32]: 2.23%
- inhibition of growth at 10 µM [33]: 17.8%
- inhibition of growth at 10 µM [34]: 6.04%
- inhibition of growth at 10 µM [35]: 12.8%
- inhibition of growth at 10 µM [36]: 18.8%
- inhibition of growth at 10 µM [37]: 18.8%
- growth inhibition (GI) [38]: inactive
- inhibition of growth at 10 µM [39]: 4.8%
- inhibition of growth at 10 µM [40]: 18.2%
- inhibition of growth at 10 µM [41]: 3.47%
- inhibition of growth at 10 µM [42]: 10.6%
- inhibition of growth at 10 µM [43]: 11.3%
- inhibition of growth at 10 µM [44]: 17.3%
- inhibition of growth at 10 µM [45]: 15.1%
- growth inhibition (GI) [46]: inactive
- growth inhibition (GI) [47]: inactive
- inhibition of growth at 10 µM [48]: 26.7%
- inhibition of growth at 10 µM [49]: 5.6%
- inhibition of growth at 10 µM [50]: 4.26%
- inhibition of growth at 10 µM [51]: 13.4%
- inhibition of growth at 10 µM [52]: 1.42%
- growth inhibition (GI) [53]: inactive
- inhibition of growth at 10 µM [54]: 17.6%
- inhibition of growth at 10 µM [55]: 10.7%
- inhibition of growth at 10 µM [56]: 3.94%
